Target: T1, wild-type FLT3 receptor (Homo sapiens, UniProt P36888)
T1 construct: host or cells: Baf3 (murine B cell lymphoma line), stably transfected
T1 sequence (P36888 27-993): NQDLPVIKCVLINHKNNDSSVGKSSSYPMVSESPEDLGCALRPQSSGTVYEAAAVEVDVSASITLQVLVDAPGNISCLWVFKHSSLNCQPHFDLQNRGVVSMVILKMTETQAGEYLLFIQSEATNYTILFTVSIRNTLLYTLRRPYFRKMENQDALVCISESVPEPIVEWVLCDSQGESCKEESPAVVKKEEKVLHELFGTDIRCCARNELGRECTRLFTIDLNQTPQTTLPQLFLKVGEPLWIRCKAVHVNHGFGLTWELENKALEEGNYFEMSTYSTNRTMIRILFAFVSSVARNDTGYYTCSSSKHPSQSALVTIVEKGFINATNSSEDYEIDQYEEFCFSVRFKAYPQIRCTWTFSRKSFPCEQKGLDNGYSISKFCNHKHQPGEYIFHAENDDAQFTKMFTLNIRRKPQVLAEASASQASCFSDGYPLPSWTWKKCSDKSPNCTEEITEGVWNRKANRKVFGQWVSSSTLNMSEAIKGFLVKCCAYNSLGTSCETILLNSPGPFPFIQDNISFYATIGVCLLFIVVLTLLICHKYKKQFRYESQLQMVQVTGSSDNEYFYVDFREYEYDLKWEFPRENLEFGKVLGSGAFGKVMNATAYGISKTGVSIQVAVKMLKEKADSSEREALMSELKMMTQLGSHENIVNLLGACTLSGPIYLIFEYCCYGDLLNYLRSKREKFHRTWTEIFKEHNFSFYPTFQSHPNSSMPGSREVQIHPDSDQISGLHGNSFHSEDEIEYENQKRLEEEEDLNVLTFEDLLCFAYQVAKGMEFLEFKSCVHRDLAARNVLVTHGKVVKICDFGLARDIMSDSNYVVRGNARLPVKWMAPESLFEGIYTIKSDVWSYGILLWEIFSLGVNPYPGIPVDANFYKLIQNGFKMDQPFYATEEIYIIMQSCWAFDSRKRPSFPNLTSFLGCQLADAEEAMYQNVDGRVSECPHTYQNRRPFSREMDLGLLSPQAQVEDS
Test: Cell-based FLT3 receptor ELISA (FLT ligand-induced phosphorylation in Baf3 FLT3 cells)
Details: 100 ng/mL Flt ligand, uncertainty ±20%
Procedure: Specific cellular inhibition of FLT ligand-induced wild-type FLT3 phosphorylation was measured in the following manner: Baf3 FLT3 cells overexpressing the FLT3 receptor were obtained from Dr. Michael Heinrich (Oregon Health and Sciences University). The Baf3 FLT3 cell lines were created by stable transfection of parental Baf3 cells (a murine B cell lymphoma line dependent on the cytokine IL-3 for growth) with wild-type FLT3. Cells were selected for their ability to grow in the absence of IL-3 and in the presence of FLT3 ligand. Baf3 cells were maintained in RPMI 1640 with 10% FBS, penn/strep and 10 ng/ml FLT ligand at 37° C., 5% CO2. To measure direct inhibition of the wild-type FLT3 receptor activity and phosphorylation a sandwich ELISA method was developed similar to those developed for other RTKs (see Sadick, M D, Sliwkowski, M X, Nuijens, A, Bald, L, Chiang, N, Lofgren, J A, Wong W L T. Analysis of Heregulin-Induced ErbB2 Phosphorylation with a High-Throughput Kinase Receptor Activation Enzyme-Linked Immunsorbent Assay, Analytical Biochemistry. 1996; 235:207-214 and Baumann C A, Zeng L, Donatelli R R, Maroney A C. Development of a quantitative, high-throughput cell-based enzyme-linked immunosorbent assay for detection of colony-stimulating factor-1 receptor tyrosine kinase inhibitors. J Biochem Biophys Methods. 2004; 60:69-79.). 200 μL of Baf3FLT3 cells (1×10^6 /mL) were plated in 96 well dishes in RPMI 1640 with 0.5% serum and 0.01 ng/mL IL-3 for 16 hours prior to 1 hour compound or DMSO vehicle incubation. Cells were treated with 100 ng/mL Flt ligand (R&D Systems Cat# 308-FK) for 10 min. at 37° C. Cells were pelleted, washed and lysed in 100 ul lysis buffer (50 mM Hepes, 150 mM NaCl, 10% Glycerol, 1% Triton-X-100, 10 mM NaF, 1 mM EDTA, 1.5 mM MgCl2, 10 mM NaPyrophosphate) supplemented with phosphatase (Sigma Cat# P2850) and protease inhibitors (Sigma Cat #P8340). Lysates were cleared by centrifugation at 1000×g for 5 minutes at 4° C. Cell lysates were transferred to white wall 96 well microtiter (Costar #9018) plates coated with 50 ng/well anti-FLT3 antibody (Santa Cruz Cat# sc-480) and blocked with SeaBlock reagent (Pierce Cat#37527). Lysates were incubated at 4° C. for 2 hours. Plates were washed 3× with 200 ul/well PBS/0.1% Triton-X-100. Plates were then incubated with 1:8000 dilution of HRP-conjugated anti-phosphotyrosine antibody (Clone 4G10, Upstate Biotechnology Cat#16-105) for 1 hour at room temperature. Plates were washed 3× with 200 ul/well PBS/0.1% Triton-X-100. Signal detection with Super Signal Pico reagent (Pierce Cat#37070) was done according to manufacturer's instruction with a Berthold microplate luminometer. All data points are an average of triplicate samples. […] Inhibition and IC50 data analysis was done with GraphPad Prism using a non-linear regression fit with a multiparamater, sigmoidal dose-response (variable slope) equation.

| Structure (SMILES) | IC50 |
| --- | --- |
| COc1cc2ncnc(C3CCN(C(=O)Nc4ccc(C5=CCNCC5)cc4)CC3)c2cc1OC [Example 62, 4-(6,7-Dimethoxy-quinazolin-4-yl)-piperidine-1-carboxylic acid [4-(1,2,3,6-tetrahydro-pyridin-4-yl)-phenyl]-amide] | 976 nM |
| COc1cc2ncnc(C3CCN(C(=O)Nc4ccc(C5CCN(C(=O)OC(C)(C)C)CC5)cc4)CC3)c2cc1OC [Example 63, 4-(4-{[4-(6,7-Dimethoxy-quinazolin-4-yl)-piperidine-1-carbonyl]-amino}-phenyl)-piperidine-1-carboxylic acid tert-butyl ester] | 762 nM |
| CN1CCN(CCCOc2ccc3c(C4CCN(C(=O)Nc5ccc(N6CCOCC6)cc5)CC4)ncnc3c2)CC1 [Example 73, 4-{7-[3-(4-Methyl-piperazin-1-yl)-propoxy]-quinazolin-4-yl}-piperidine-1-carboxylic acid (4-morpholin-4-yl-phenyl)-amide] | 92 nM |
| O=C(Nc1ccc(N2CCOCC2)cc1)N1CCC(c2ncnc3cc(OCCCN4CCCCC4)ccc23)CC1 [Example 75] | 84 nM |
| CC(C)Oc1ccc(NC(=O)N2CCC(c3ncnc4ccc(OCCCN5CCN(C)CC5)cc34)CC2)cc1 [Example 76, 4-{6-[3-(4-Methyl-piperazin-1-yl)-propoxy]-quinazolin-4-yl}-piperidine-1-carboxylic acid (4-isopropoxy-phenyl)-amide] | 96 nM |
| O=C(Nc1ccc(N2CCOCC2)cc1)N1CCC(c2ncnc3cc(OCCCO)ccc23)CC1 [Example 77, 4-[7-(3-Hydroxy-propoxy)-quinazolin-4-yl]-piperidine-1-carboxylic acid (4-morpholin-4-yl-phenyl)-amide] | 98 nM |
| CN1CCN(CCCOc2ccc3c(C4CCN(C(=O)Nc5ccc(OC6CCCC6)nc5)CC4)ncnc3c2)CC1 [Example 82, 4-{7-[3-(4-Methyl-piperazin-1-yl)-propoxy]-quinazolin-4-yl}-piperidine-1-carboxylic acid (6-cyclopentyloxy-pyridin-3-yl)-amide] | 63 nM |
| O=C1CCCN1CCOc1ccc2c(C3CCN(C(=O)Nc4cnc(N5CCCC5)nc4)CC3)ncnc2c1 [Example 84, 4-{7-[2-(2-Oxo-pyrrolidin-1-yl)-ethoxy]-quinazolin-4-yl}-piperidine-1-carboxylic acid (2-pyrrolidin-1-yl-pyrimidin-5-yl)-amide] | 80 nM |
| O=C1CCCN1CCOc1ccc2c(C3CCN(C(=O)Nc4ccc(N5CCOCC5)cc4)CC3)ncnc2c1 [Example 85, 4-{7-[2-(2-Oxo-pyrrolidin-1-yl)-ethoxy]-quinazolin-4-yl}-piperidine-1-carboxylic acid (4-morpholin-4-yl-phenyl)-amide] | 75 nM |

Compounds with a lower IC50, results first:

| IC50 | Structure (SMILES) |
| --- | --- |
| 37 nM | CC(C)Oc1ccc(NC(=O)N2CCC(c3ncnc4cc(OCCCNS(C)(=O)=O)ccc34)CC2)cc1 [Example 65, 4-[7-(3-Methanesulfonylamino-propoxy)-quinazolin-4-yl]-piperidine-1-carboxylic acid (4-isopropoxy-phenyl)-amide] |
| 37 nM | O=C1CCCN1CCOc1ccc2c(C3CCN(C(=O)Nc4ccc(N5CCOCC5)nc4)CC3)ncnc2c1 [Example 83, 4-{7-[2-(2-Oxo-pyrrolidin-1-yl)-ethoxy]-quinazolin-4-yl}-piperidine-1-carboxylic acid (6-morpholin-4-yl-pyridin-3-yl)-amide] |
| 29 nM | O=C1CCCN1CCCOc1ccc2c(C3CCN(C(=O)Nc4ccc(N5CCOCC5)cc4)CC3)ncnc2c1 [Example 68, 4-{7-[3-(2-Oxo-pyrrolidin-1-yl)-propoxy]-quinazolin-4-yl}-piperidine-1-carboxylic acid (4-morpholin-4-yl-phenyl)-amide] |
| 29 nM | COc1cc2ncnc(C3CCN(C(=O)Nc4ccc(OC5CCCC5)nc4)CC3)c2cc1OC [Example 69, 4-(6,7-Dimethoxy-quinazolin-4-yl)-piperidine-1-carboxylic acid (6-cyclopentyloxy-pyridin-3-yl)-amide] |
| 28 nM | O=C1CCCN1CCCOc1ccc2c(C3CCN(C(=O)Nc4ccc(N5CCOCC5)nc4)CC3)ncnc2c1 [Example 72, 4-{7-[3-(2-Oxo-pyrrolidin-1-yl)-propoxy]-quinazolin-4-yl}-piperidine-1-carboxylic acid (6-morpholin-4-yl-pyridin-3-yl)-amide] |
| 28 nM | CN1CCN(CCCOc2ccc3c(C4CCN(C(=O)Nc5ccc(N6CCOCC6)c(F)c5)CC4)ncnc3c2)CC1 [Example 81, 4-{7-[3-(4-Methyl-piperazin-1-yl)-propoxy]-quinazolin-4-yl}-piperidine-1-carboxylic acid (3-fluoro-4-morpholin-4-yl-phenyl)-amide] |
| 20 nM | COCCCOc1ccc2c(C3CCN(C(=O)Nc4ccc(N5CCOCC5)cc4)CC3)ncnc2c1 [Example 78, 4-[7-(3-Methoxy-propoxy)-quinazolin-4-yl]-piperidine-1-carboxylic acid (4-morpholin-4-yl-phenyl)-amide] |
| 19 nM | CN1CCN(CCCOc2ccc3c(C4CCN(C(=O)Nc5ccc(N6CCOCC6)nc5)CC4)ncnc3c2)CC1 [Example 80, 4-{7-[3-(4-Methyl-piperazin-1-yl)-propoxy]-quinazolin-4-yl}-piperidine-1-carboxylic acid (6-morpholin-4-yl-pyridin-3-yl)-amide] |
| 17 nM | CC(C)Oc1ccc(NC(=O)N2CCC(c3ncnc4cc(OCCN5CCOC5=O)ccc34)CC2)cc1 [Example 79, 4-{7-[2-(2-Oxo-oxazolidin-3-yl)-ethoxy]-quinazolin-4-yl}-piperidine-1-carboxylic acid (4-isopropoxy-phenyl)-amide] |
| 13 nM | CS(=O)(=O)NCCCOc1ccc2c(C3CCN(C(=O)Nc4ccc(N5CCOCC5)cc4)CC3)ncnc2c1 [Example 66, 4-[7-(3-Methanesulfonylamino-propoxy)-quinazolin-4-yl]-piperidine-1-carboxylic acid (4-morpholin-4-yl-phenyl)-amide] |
| 12 nM | O=C1CCCN1CCOc1ccc2c(C3CCN(C(=O)Nc4ccc(N5CCCC5)cc4)CC3)ncnc2c1 [Example 74, 4-{7-[2-(2-Oxo-pyrrolidin-1-yl)-ethoxy]-quinazolin-4-yl}-piperidine-1-carboxylic acid (4-pyrrolidin-1-yl-phenyl)-amide] |
| 3 nM | CC(C)Oc1ccc(NC(=O)N2CCC(c3ncnc4cc(OCCCN5CCCC5=O)ccc34)CC2)cc1 [Example 67, 4-{7-[3-(2-Oxo-pyrrolidin-1-yl)-propoxy]-quinazolin-4-yl}-piperidine-1-carboxylic acid (4-isopropoxy-phenyl)-amide] |
